What was measured:
[1] = test system: IL-17A-induced G-CSF production in human normal keratinocyte (NHK); experiment: NHK Assay: IL-17A-induced G-CSF production in human normal keratinocytes; format: cell-based; details: 24 h, adult normal human keratinocytes, IL-17A 5 ng/mL, simple average if tested more than once
Procedure, shortened: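 G-CSF released by primary adult human keratinocytes after 24 h at 37° C was quantified by HTRF via standard curve to give IC50. Stimulus was 5 ng/mL IL-17A pre-mixed 1 h at rt with compound dilutions, in 5% FBS and 0.2% DMSO. Cell viability was assessed in parallel with CellTiter-Glo.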

[2] = biological target: IL-17A(FLAG-Tagged): IL-17RA(His-Tagged) (Homo sapiens, UniProt Q16552, K93Q); experiment: IL-17A(FLAG-Tagged): IL-17RA(His-Tagged) Binding Disruption Eu-HTRF Assay; details: IL-17A/IL-17RA binding disruption, simple average if tested more than once
UniProt Q16552, sequence (Q16552 with tags, fused parts or gaps K93Q): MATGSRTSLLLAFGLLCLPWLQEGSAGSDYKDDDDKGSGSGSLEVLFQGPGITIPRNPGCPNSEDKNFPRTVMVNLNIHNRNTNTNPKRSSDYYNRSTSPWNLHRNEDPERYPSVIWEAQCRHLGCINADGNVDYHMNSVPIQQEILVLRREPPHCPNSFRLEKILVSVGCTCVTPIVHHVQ
Procedure, shortened: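 IC50 comes from a one-site competition fit of the HTRF 665/620 nm ratio. Compound dilutions (2-fold, 22 points) were held 1 h rt with FLAG-tagged IL-17A dimer, then His-tagged IL-17RA plus Eu-cryptate anti-FLAG and D2 anti-His antibodies were added for 2 h rt.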

O=C(CCC(F)(F)F)N[C@@H](c1cnn2cc([C@@H](NC(=O)[C@@H]3C[C@@H]3CF)C3CCC(F)(F)CC3)nc2c1)C1CC1 (relative stereo) [Example 365, (1R*,2S*)—N—((S)-(7-((R*)-Cyclopropyl(4,4,4-trifluorobutanamido)methyl)imidazo[1,2-b]pyridazin-2-yl)(4,4-difluorocyclohexyl)methyl)-2-(fluoromethyl)cyclopropane-1-carboxamide]
IC50 ([1]; Homo sapiens, Keratinocyte): > 20000 nM | IC50 [2]: 1200 nM

O=C(CCC(F)(F)F)N[C@@H](c1cnn2cc([C@@H](NC(=O)[C@@H]3CC34CCC4)C3CCC(F)(F)CC3)nc2c1)C1CC1 (relative stereo) [Example 366, (R*)—N—((S)-(7-((R*)-Cyclopropyl(4,4,4-trifluorobutanamido)methyl)imidazo[1,2-b]pyridazin-2-yl)(4,4-difluorocyclohexyl)methyl)spiro[2.3]hexane-1-carboxamide]
IC50 ([1]; Homo sapiens, Keratinocyte): > 20000 nM | IC50 [2]: 2400 nM

O=C(CCC(F)(F)F)N[C@@H](c1cnn2cc([C@@H](NC(=O)[C@H]3CC34CCC4)C3CCC(F)(F)CC3)nc2c1)C1CC1 (relative stereo) [Example 367, (S*)—N—((S)-(7-((R*)-Cyclopropyl(4,4,4-trifluorobutanamido)methyl)imidazo[1,2-b]pyridazin-2-yl)(4,4-difluorocyclohexyl)methyl)spiro[2.3]hexane-1-carboxamide]
IC50 ([1]; Homo sapiens, Keratinocyte): 630 nM | IC50 [2]: 240 nM

O=C(CCC(F)(F)F)N[C@@H](c1cnn2cc([C@@H](NC(=O)[C@H]3C(F)(F)C34CCC4)C3CCC(F)(F)CC3)nc2c1)C1CC1 (relative stereo) [Example 368, (S*)—N—((S)-(7-((R*)-Cyclopropyl(4,4,4-trifluorobutanamido)methyl)imidazo[1,2-b]pyridazin-2-yl)(4,4-difluorocyclohexyl)methyl)-2,2-difluorospiro[2.3]hexane-1-carboxamide]
IC50 ([1]; Homo sapiens, Keratinocyte): 9800 nM | IC50 [2]: 1600 nM

O=C(CCC(F)(F)F)N[C@@H](c1cnn2cc([C@@H](NC(=O)[C@@H]3C(F)(F)C34CCC4)C3CCC(F)(F)CC3)nc2c1)C1CC1 (relative stereo) [Example 369, (R*)—N—((S)-(7-((R*)-Cyclopropyl(4,4,4-trifluorobutanamido)methyl)imidazo[1,2-b]pyridazin-2-yl)(4,4-difluorocyclohexyl)methyl)-2,2-difluorospiro[2.3]hexane-1-carboxamide]
IC50 ([1]; Homo sapiens, Keratinocyte): 530 nM | IC50 [2]: 140 nM

CC(C)n1nccc1C(=O)N[C@H](c1cn2ncc([C@H](NC(=O)CC3CC(F)(F)C3)C3CC3)cc2n1)[C@@H]1C[C@@H]2[C@H](C1)C2(F)F (relative stereo) [Example 404, N—((S*)-(7-((R)-Cyclopropyl(2-(3,3-difluorocyclobutyl)acetamido)methyl)imidazo[1,2-b]pyridazin-2-yl)((1R,3s,5S)-6,6-difluorobicyclo[3.1.0]hexan-3-yl)methyl)-1-isopropyl-1H-pyrazole-5-carboxamide]
IC50 ([1]; Homo sapiens, Keratinocyte): 58 nM | IC50 [2]: 180 nM

Cc1nonc1C(=O)N[C@H](c1cn2ncc([C@H](NC(=O)CC3CC(F)(F)C3)C3CC3)cc2n1)[C@@H]1C[C@@H]2[C@H](C1)C2(F)F (relative stereo) [Example 405, N—((S*)-(7-((R)-Cyclopropyl(2-(3,3-difluorocyclobutyl)acetamido)methyl)imidazo[1,2-b]pyridazin-2-yl)((1R,3s,5S)-6,6-difluorobicyclo[3.1.0]hexan-3-yl)methyl)-4-methyl-1,2,5-oxadiazole-3-carboxamide]
IC50 ([1]; Homo sapiens, Keratinocyte): 350 nM | IC50 [2]: 100 nM

N#CC1([C@@H](NC(=O)C[C@H]2CC2(F)F)c2cnn3cc([C@@H](NC(=O)c4nonc4C4CC4)C4CCC(F)(F)CC4)nc3c2)CCC1 (relative stereo) [Example 449, N—((S)-(7-((S*)-(1-Cyanocyclobutyl)(2-((S*)-2,2-difluorocyclopropyl)acetamido)methyl)imidazo[1,2-b]pyridazin-2-yl)(4,4-difluorocyclohexyl)methyl)-4-cyclopropyl-1,2,5-oxadiazole-3-carboxamide]
IC50 ([1]; Homo sapiens, Keratinocyte): 4.7 nM | IC50 [2]: 28 nM

[2H]C([2H])([2H])n1nccc1C(=O)N[C@H](c1cn2ncc([C@@H](NC(=O)CC3CC(F)(F)C3)C3CCC3)cc2n1)C1CCC(F)(F)CC1 (relative stereo) [Example 498, N—((S)-(7-((S*)-Cyclobutyl(2-(3,3-difluorocyclobutyl)acetamido)methyl)imidazo[1,2-b]pyridazin-2-yl)(4,4-difluorocyclohexyl)methyl)-1-methyl-d3)-1H-pyrazole-5-carboxamide]
IC50 ([1]; Homo sapiens, Keratinocyte): 20000 nM | IC50 [2]: 380 nM

[2H]C([2H])([2H])C([2H])([2H])n1nccc1C(=O)N[C@H](c1cn2ncc([C@H](NC(=O)C[C@H](C)C(F)(F)F)C3CCC3)cc2n1)C1CCC(F)(F)CC1 (relative stereo) [Example 500, N—((S)-(7-((R*)-Cyclobutyl((S*)-4,4,4-trifluoro-3-methylbutanamido)methyl)imidazo[1,2-b]pyridazin-2-yl)(4,4-difluorocyclohexyl)methyl)-1-(ethyl-d5)-1H-pyrazole-5-carboxamide]
IC50 ([1]; Homo sapiens, Keratinocyte): 140 nM | IC50 [2]: 150 nM

[2H]C([2H])([2H])C([2H])([2H])n1nccc1C(=O)N[C@H](c1cn2ncc([C@H](NC(=O)C[C@@H](C)C(F)(F)F)C3CCC3)cc2n1)C1CCC(F)(F)CC1 (relative stereo) [Example 501, N—((S)-(7-((R*)-Cyclobutyl((R*)-4,4,4-trifluoro-3-methylbutanamido)methyl)imidazo[1,2-b]pyridazin-2-yl)(4,4-difluorocyclohexyl)methyl)-1-(ethyl-d5)-1H-pyrazole-5-carboxamide]
IC50 ([1]; Homo sapiens, Keratinocyte): 95 nM | IC50 [2]: 120 nM

[2H]C([2H])([2H])n1nccc1C(=O)N[C@H](c1cn2ncc([C@H](NC(=O)C[C@@H](C)C(F)(F)F)C3CCC3)cc2n1)C1CCC(F)(F)CC1 (relative stereo) [Example 502, N—((S)-(7-((R*)-Cyclobutyl((R*)-4,4,4-trifluoro-3-methylbutanamido)methyl)imidazo[1,2-b]pyridazin-2-yl)(4,4-difluorocyclohexyl)methyl)-1-(methyl-d3)-1H-pyrazole-5-carboxamide]
IC50 ([1]; Homo sapiens, Keratinocyte): 400 nM | IC50 [2]: 160 nM

[2H]C([2H])([2H])n1nccc1C(=O)N[C@H](c1cn2ncc([C@H](NC(=O)C[C@H](C)C(F)(F)F)C3CCC3)cc2n1)C1CCC(F)(F)CC1 (relative stereo) [Example 503, N—((S)-(7-((R*)-Cyclobutyl((S*)-4,4,4-trifluoro-3-methylbutanamido)methyl)imidazo[1,2-]pyridazin-2-yl)(4,4-difluorocyclohexyl)methyl)-1-(methyl-d3)-1H-pyrazole-5-carboxamide]
IC50 ([1]; Homo sapiens, Keratinocyte): 130 nM | IC50 [2]: 100 nM

[2H]C([2H])([2H])C([2H])([2H])n1nccc1C(=O)N[C@H](c1cn2ncc([C@H](CC)NC(=O)CC3CC(F)(F)C3)cc2n1)C1CCC(F)(F)CC1 (relative stereo) [Example 508, N—((S)-(7-((S*)-1-(2-(3,3-Difluorocyclobutyl)acetamido)propyl)imidazo[1,2-b]pyridazin-2-yl)(4,4-difluorocyclohexyl)methy)-1-(ethyl-d5)-1H-pyrazole-5-carboxamide]
IC50 ([1]; Homo sapiens, Keratinocyte): 10000 nM | IC50 [2]: 1200 nM

CC[C@H](NC(=O)CC1CC(F)(F)C1)c1cnn2cc([C@@H](NC(=O)c3nonc3C3CC3)C3CCC(F)(F)CC3)nc2c1 (relative stereo) [Example 521, 4-Cyclopropyl-N—((S*)-(7-((R)-1-(2-(3,3-difluorocyclobutyl)acetamido)propyl)imidazo[1,2-b]pyridazin-2-yl)(4,4-difluorocyclohexyl)methyl)-1,2,5-oxadiazole-3-carboxamide]
IC50 ([1]; Homo sapiens, Keratinocyte): 8000 nM | IC50 [2]: 390 nM

O=C(CC1CC(F)(F)C1)N[C@@H](c1cnn2cc([C@@H](NC(=O)c3nonc3C3CC3)C3CCC(F)(F)CC3)nc2c1)C1CCOCC1 (relative stereo) [Example 536, 4-Cyclopropyl-N—((S)-(7-((R*)-1-(2-(3,3-difluorocyclobutyl)acetamido)(tetrahydro-2H-pyran-4-yl)methylimidazo[1,2-b]pyridazin-2-yl)(4,4-difluorocyclohexyl)methyl)-1,2,5-oxadiazole-3-carboxamide]
IC50 ([1]; Homo sapiens, Keratinocyte): 12 nM | IC50 [2]: 49 nM

O=C(CCC(F)(F)F)NC(c1cnn2cc([C@@H](NC(=O)c3cnn(CCC(F)(F)F)c3)C3CCC(F)(F)CC3)nc2c1)C1CC1 (single isomer, unassigned) [Example 6, N—((S)-(7-((R*)-Cyclopropyl(4,4,4-trifluorobutanamido)methyl)imidazo[1,2-b]pyridazin-2-yl)(4,4-difluorocyclohexyl)methyl)-1-(3,3,3-trifluoropropyl)-1H-pyrazole-4-carboxamide]
IC50 [1]: 570 nM | IC50 [2]: 290 nM

O=C(CCC(F)(F)F)NC(c1cnn2cc([C@@H](NC(=O)c3cnn(CCC(F)(F)F)c3)C3CCC(F)(F)CC3)nc2c1)C1CC1 (single isomer, unassigned) [Example 7, N—((S)-(7-((S*)-Cyclopropyl(4,4,4-trifluorobutanamido)methyl)imidazo[1,2-b]pyridazin-2-yl)(4,4-difluorocyclohexyl)methyl)-1-(3,3,3-trifluoropropyl)-1H-pyrazole-4-carboxamide]
IC50 [1]: > 20000 nM | IC50 [2]: 4900 nM

Source: patent publication US11702422B2, “Imidazopyridazines as modulators of IL-17” (Janssen Pharmaceutica NV, priority 2020, dated 2023)
